Experimental data: patent US6479487B1, “6, 9-disubstituted 2-[trans-(4-aminocyclohexyl)amino] purines” (Aventis Pharmaceuticals Inc., priority 1998, dated 2002)
“And” between values parts separate entries of the source, which are not always exact repeats. Identical values can stand only once. Counter-ions that a name gives are not always drawn. Like-named read-outs stand apart in the source and are kept apart here.

Key:
[1] = test system: Colo-205; test: In vitro tumor cell proliferation, Colo-205; type: cell-based; conditions: values given with an undefined *, read-out: In vitro Tumor Cell Proliferation (IC50, μM) Colon Colo-205
In short: (§1)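 Growth was quantified by sulforhodamine B staining of TCA-fixed cells after 3 days of drug plus 4 more days with fresh drug, or by CyQUANT after 3 days of drug and freezing at −80° C. Counted viable cells were plated and incubated overnight at 37° C before drug.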

[2] = test system: DMS-114; test: In vitro tumor cell proliferation, DMS-114; type: cell-based, human; conditions: many values given with an undefined *, read-out: In vitro Tumor Cell Proliferation (IC50, μM) Lung DMS-114
In short: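 Human small cell lung carcinoma DMS-114 cells plated overnight, then drug-treated for 3 days, medium and drug renewed, and incubated 4 more days. Growth read by sulforhodamine B staining after TCA fixation; alternatively by CyQUANT after 3 days' drug exposure and freezing at −80 °C.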

[3] = test system: MDA-MB-231; test: In vitro tumor cell proliferation, MDA-MB-231; type: cell-based, human; conditions: sulforhodamine B or CyQUANT assay, many values given with an undefined *, read-out: In vitro Tumor Cell Proliferation (IC50, μM) Breast MDA-MB-231
In short: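 Cells plated overnight at 37 °C, then exposed to drug for 3 days, refed with fresh drug and incubated 4 more days. Read-out by sulforhodamine B staining after TCA fixation; alternatively, CyQUANT after 3-day drug exposure and freezing at −80 °C.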

[4] = test system: PC-3; test: In vitro tumor cell proliferation, PC-3; type: cell-based, human; conditions: many values given with an undefined *, read-out: In vitro Tumor Cell Proliferation (IC50, μM) Prostate PC-3
In short: as §1

[5] = test system: HT-29; test: In vitro tumor cell proliferation, HT-29; type: cell-based, human; conditions: many values given with an undefined *, read-out: In vitro Tumor Cell Proliferation (IC50, μM) Colon HT-29
In short: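 HT-29 cells seeded overnight at 37° C, then exposed to drug for 3 days, refed with fresh drug-containing medium for 4 more days. Proliferation read by sulforhodamine B staining after TCA fixation; alternatively by CyQUANT after freezing plates at −80° C following 3 days' drug exposure.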

[6] = molecular target: T1, cdk4/cyclin D1 (Homo sapiens, UniProt P11802); test: Cyclin-dependent Kinase 4 Assay (cdk4/cyclin D1, GST-Rb substrate); type: biochemical; conditions: cdk4/cyclin D1 insect cell lysate, 10 μM ATP, 30 min at 37° C., several values = separate determinations, read-out: CDK4 Inhibition IC50
T1 construct: made in house; host or cells: Sf9 insect cells (Bac-to-Bac baculovirus, pFastBac)
T1 sequence (P11802 whole entry): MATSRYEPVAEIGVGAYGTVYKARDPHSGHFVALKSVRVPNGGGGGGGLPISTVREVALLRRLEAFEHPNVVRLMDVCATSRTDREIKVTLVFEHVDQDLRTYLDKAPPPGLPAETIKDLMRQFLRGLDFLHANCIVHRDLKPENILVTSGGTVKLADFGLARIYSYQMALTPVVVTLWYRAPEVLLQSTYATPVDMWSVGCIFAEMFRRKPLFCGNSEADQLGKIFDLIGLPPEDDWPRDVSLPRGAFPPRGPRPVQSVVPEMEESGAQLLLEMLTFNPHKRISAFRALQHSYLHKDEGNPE
T1 sequence (P24385 whole entry partner): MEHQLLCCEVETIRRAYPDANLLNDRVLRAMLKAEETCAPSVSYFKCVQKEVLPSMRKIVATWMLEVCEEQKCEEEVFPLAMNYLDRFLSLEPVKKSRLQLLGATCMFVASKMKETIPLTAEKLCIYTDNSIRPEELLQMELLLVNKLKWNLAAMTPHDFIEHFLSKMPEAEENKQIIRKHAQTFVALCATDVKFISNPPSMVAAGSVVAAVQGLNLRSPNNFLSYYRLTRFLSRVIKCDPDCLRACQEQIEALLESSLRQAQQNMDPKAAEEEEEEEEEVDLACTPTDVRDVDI
In short: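 Insect-cell lysate of coexpressed cdk4/cyclin D1 (0.1 μg) acts on GST-Rb (0.5 μg) bound to glutathione-Sepharose, in 50 mM HEPES pH 7.5, 10 mM MgCl2, 1 mM EGTA. Reaction runs 30 min at 37 °C, then is stopped by filtration and TNEN washes. Rb phosphorylation read by scintillation counting; IC50 derived.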

[7] = molecular target: T2, cdk2/cyclin E (Homo sapiens, UniProt P24941); test: Cyclin-Dependent Kinase 2 Assay (cdk2/cyclin E, GST-Rb substrate); type: biochemical; conditions: recombinant cdk2/cyclin E, 10 μM ATP, 30 min at 30° C., several values in a cell = separate determinations, read-out: CDK-2 Inhibition IC50
T2 construct: made in house; host or cells: insect cells (baculovirus co-infection)
Method: Substrate: GST-Rb as described above for cdk4/cyclin D1
Assay conditions for cdk2/cyclin E were identical to those for cdk4/cyclin D1 including the substrate. The concentration of recombinant cdk2/cyclin E in the assay was 0.1 μg per 100 μl assay. Incubation was for 30 min at 30° C.

[8] = test system: DU145; test: In vitro tumor cell proliferation, DU145; type: cell-based, human; conditions: many values given with an undefined *, read-out: In vitro Tumor Cell Proliferation (IC50, μM) Prostate DU145
In short: as §1

[9] = test system: A549; test: In vitro tumor cell proliferation, A549; type: cell-based, human; conditions: many values given with an undefined *, read-out: In vitro Tumor Cell Proliferation (IC50, μM) Lung A549
In short: as §1

[10] = test system: MDA-MB-435; test: In vitro tumor cell proliferation, MDA-MB-435; type: cell-based; conditions: values given with an undefined *, read-out: In vitro Tumor Cell Proliferation (IC50, μM) Breast MDA-MB-435
In short: as §1

[11] = Homo sapiens, COLO 205, Colo-205
[12] = Homo sapiens, MDA-MB-231, MDA-MB-231
[13] = Homo sapiens, MDA-MB-435, MDA-MB-435

Structure (SMILES)	IC50 ([1]; Colo-205, trihydrochloride) [µM]	IC50 [1, 11] [µM]	IC50 ([2]; DMS-114, trihydrochloride) [µM]	IC50 ([2]; Homo sapiens, DMS-114, DMS-114) [µM]	IC50 [3, 12] [µM]	IC50 ([4]; Homo sapiens, PC-3, PC-3) [µM]	IC50 ([4]; PC-3, trihydrochloride) [µM]	IC50 ([5]; HT-29, trihydrochloride) [µM]	IC50 [6]	IC50 [7]	IC50 ([8]; DU145, trihydrochloride) [µM]	IC50 ([8]; Homo sapiens, DU-145, DU145) [µM]	IC50 ([9]; A549, trihydrochloride) [µM]	IC50 ([9]; Homo sapiens, A549, A549) [µM]	IC50 [10, 13] [µM]	IC50 ([10]; MDA-MB-435, trihydrochloride) [µM]	IC50 ([5]; Homo sapiens, HT-29, HT-29) [µM]	IC50 ([3]; MDA-MB-231, trihydrochloride) [µM]
N[C@H]1CC[C@H](Nc2nc(NC3CCN(Cc4cc(F)cc(F)c4)CC3)c3ncn(C4CCCC4)c3n2)CC1 [Example 147-g, 2-[Trans-(4-aminocyclohexyl)amino]-6-[4-1 1-(3.5-difluorobenzyl)]piperidinylamino]-9-cyclopentylpurine trihydrochloride]	0.13	0.18	0.26	0.32	0.29	0.21	0.39	0.29	3500 nM and 2000 nM	330 nM and 290 nM	0.25	0.22	0.14	0.19	0.3	0.41	–	–
N[C@H]1CC[C@H](Nc2nc(NC3CCN(Cc4ccc(F)cc4F)CC3)c3ncn(C4CCCC4)c3n2)CC1 [Example 147-h, 2-[Trans-(4-aminocyclohexyl)amino]-6-[4-[1-(2,4-difluorobenzyl)piperidinylamino]-9-cyclopentylpurinetrihydrochloride]	0.21	0.34	0.47	0.94	0.47	0.33	0.58	0.47	2800 nM and 1800 nM	100 nM and 240 nM	0.36	0.34	0.16	0.22	0.48	0.78	0.42	–
N[C@H]1CC[C@H](Nc2nc(NC3CCN(Cc4cccc(F)c4)CC3)c3ncn(C4CCCC4)c3n2)CC1 [Example 147-j, 2-[Trans-(4-aminocyclohexyl)amino]-6-[4-[1-(3-fluorobenzyl)]piperidinylamino]-9-cyclopentylpurine trihydrochloride]	–	0.17	0.25	0.37	0.2	0.17	0.26	0.22	1300 nM and 720 nM	200 nM and 210 nM	0.2	0.21	0.14	0.15	0.27	0.3	0.3	0.21
N[C@H]1CC[C@H](Nc2nc(NC3CCN(Cc4ccccc4F)CC3)c3ncn(C4CCCC4)c3n2)CC1 [Example 147-k, 2-[Trans-(4-aminocyclohexyl)amino]-6-[4-[1-(2-fluorobenzyl)]piperidinylamino]-9-cyclopentylpurine trihydrochloride]	0.15	0.26	0.29	0.45	–	0.35	0.34	0.26	2900 nM	200 nM and 170 nM	0.15	0.3	0.16	0.29	0.39	–	0.4	0.32
N[C@H]1CC[C@H](Nc2nc(NC3CCN(Cc4ccc(F)cc4)CC3)c3ncn(C4CCCC4)c3n2)CC1 [Example 147-l, 2-[Trans-(4-aminocyclohexyl)amino]-6-[4-[1-(4-fluorobenzyl)]piperidinylamino]-9-cyclopentylpurine trihydrochloride]	0.19	0.26	0.43	0.48	0.33	–	0.41	0.4	2000 nM and 2700 nM and 1300 nM	260 nM and 170 nM and 280 nM	0.29	0.3	0.19	0.26	0.46	–	0.37	0.29
N[C@H]1CC[C@H](Nc2nc(NC3CCN(Cc4cccc(C(F)(F)F)c4)CC3)c3ncn(C4CCCC4)c3n2)CC1 [Example 147-m, 2-[Trans-(4-aminocyclohexyl)amino]-6-[4-[1-(3-trifluoromethylbenzyl)]piperidinylamino]-cyclopentylpurine trihydrochloride]	0.17	0.18	0.32	0.29	0.32	0.25	0.5	0.35	370 nM	65 nM and 77 nM	0.35	0.32	0.22	0.17	0.42	0.56	0.34	0.33

Second part, the molecule after the results:

IC50 ([1]; Colo-205, trihydrochloride) [µM]	IC50 [1, 11] [µM]	IC50 ([2]; DMS-114, trihydrochloride) [µM]	IC50 ([2]; Homo sapiens, DMS-114, DMS-114) [µM]	IC50 [3, 12] [µM]	IC50 ([4]; Homo sapiens, PC-3, PC-3) [µM]	IC50 ([4]; PC-3, trihydrochloride) [µM]	IC50 ([5]; HT-29, trihydrochloride) [µM]	IC50 [6]	IC50 [7]	IC50 ([8]; DU145, trihydrochloride) [µM]	IC50 ([8]; Homo sapiens, DU-145, DU145) [µM]	IC50 ([9]; A549, trihydrochloride) [µM]	IC50 ([9]; Homo sapiens, A549, A549) [µM]	IC50 [10, 13] [µM]	IC50 ([10]; MDA-MB-435, trihydrochloride) [µM]	IC50 ([5]; Homo sapiens, HT-29, HT-29) [µM]	IC50 ([3]; MDA-MB-231, trihydrochloride) [µM]	Structure (SMILES)
0.32	0.44	0.8	1.1	0.81	0.73	0.93	0.64	1600 nM and 3100 nM	160 nM and 340 nM and 440 nM	0.59	0.6	0.33	0.39	0.89	1	0.71	0.72	N[C@H]1CC[C@H](Nc2nc(NC3CCN(Cc4c(F)cccc4Cl)CC3)c3ncn(C4CCCC4)c3n2)CC1 [Example 147-n, 2-[Trans-(4-aminocyclohexyl)amino]-6-[4-[1-(2-chloro-6-fluorobenzyl)]piperidinylamino]-cyclopentylpurine trihydrochloride]
0.45	0.63	0.71	0.78	0.77	0.64	0.92	0.77	1800 nM	200 nM and 160 nM	0.69	0.76	0.44	0.42	0.92	1.1	0.83	0.9	N[C@H]1CC[C@H](Nc2nc(NC3CCN(Cc4ccc(Cl)c(Cl)c4)CC3)c3ncn(C4CCCC4)c3n2)CC1 [Example 147-o, 2-[Trans-(4-aminocyclohexyl)amino]-6-[4-[1-(3,4-dichlorobenzyl)]piperidinylamino]-9-cyclopentylpurine trihydrochloride]
0.48	0.45	0.68	0.91	0.57	0.46	0.66	0.72	3100 nM and 3900 nM	300 nM and 110 nM and 360 nM	–	0.54	0.34	0.39	0.59	0.68	0.71	0.6	N[C@H]1CC[C@H](Nc2nc(NC3CCN(Cc4ccc5ccccc5c4)CC3)c3ncn(C4CCCC4)c3n2)CC1 [Example 147-p, 2-[Trans-(4-aminocyclohexyl)amino]-6-[4-[1-(2-naphthyl)methyl]piperidinylamino]-9-cyclopentylpurine trihydrochloride]
